Measured values from ChEMBL document CHEMBL3272333, “Synthesis and biologic distribution of radioiodinated beta-adrenergic antagonists” (J Med Chem, 1978).

Tests used:
Parameters in all cases: dose 0.5-1 mg/kg, route intravenous
[1] = system: Liver; experiment: Biodistribution in Sprague-Dawley rat liver at 0.5 to 1 mg/kg, iv after 15 mins by gamma-well counting analysis; type: ADME, organism-based; conditions: in vivo, 0.25 h
[2] = system: Spleen; experiment: Biodistribution in Sprague-Dawley rat spleen at 0.5 to 1 mg/kg, iv after 15 mins by gamma-well counting analysis; type: ADME, organism-based; conditions: in vivo, 0.25 h
[3] = system: Lung; experiment: Biodistribution in Sprague-Dawley rat lung at 0.5 to 1 mg/kg, iv after 15 mins by gamma-well counting analysis; type: ADME, organism-based; conditions: in vivo, 0.25 h
[4] = system: Heart; experiment: Biodistribution in Sprague-Dawley rat heart at 0.5 to 1 mg/kg, iv after 15 mins by gamma-well counting analysis; type: ADME, organism-based; conditions: in vivo, 0.25 h
[5] = system: Kidney; experiment: Biodistribution in Sprague-Dawley rat kidney at 0.5 to 1 mg/kg, iv after 15 mins by gamma-well counting analysis; type: ADME, organism-based; conditions: in vivo, 0.25 h
[6] = system: Muscle tissue; experiment: Biodistribution in Sprague-Dawley rat muscle at 0.5 to 1 mg/kg, iv after 15 mins by gamma-well counting analysis; type: ADME, organism-based; conditions: in vivo, 0.25 h
[7] = system: Bone; experiment: Biodistribution in Sprague-Dawley rat bone at 0.5 to 1 mg/kg, iv after 15 mins by gamma-well counting analysis; type: ADME, organism-based, Bone element; conditions: in vivo, 0.25 h
[8] = system: Blood; experiment: Biodistribution in Sprague-Dawley rat blood at 0.5 to 1 mg/kg, iv after 15 mins by gamma-well counting analysis; type: ADME, organism-based; conditions: in vivo, 0.25 h
[9] = system: Thyroid gland; experiment: Biodistribution in Sprague-Dawley rat thyroid at 0.5 to 1 mg/kg, iv after 15 mins by gamma-well counting analysis; type: ADME, organism-based; conditions: in vivo, 0.25 h
[10] = system: Liver; experiment: Biodistribution in Sprague-Dawley rat liver at 0.5 to 1 mg/kg, iv after 1 hr by gamma-well counting analysis; type: ADME, organism-based; conditions: in vivo
[11] = system: Spleen; experiment: Biodistribution in Sprague-Dawley rat spleen at 0.5 to 1 mg/kg, iv after 1 hr by gamma-well counting analysis; type: ADME, organism-based; conditions: in vivo
[12] = system: Lung; experiment: Biodistribution in Sprague-Dawley rat lung at 0.5 to 1 mg/kg, iv after 1 hr by gamma-well counting analysis; type: ADME, organism-based; conditions: in vivo
[13] = system: Heart; experiment: Biodistribution in Sprague-Dawley rat heart at 0.5 to 1 mg/kg, iv after 1 hr by gamma-well counting analysis; type: ADME, organism-based; conditions: in vivo
[14] = system: Kidney; experiment: Biodistribution in Sprague-Dawley rat kidney at 0.5 to 1 mg/kg, iv after 1 hr by gamma-well counting analysis; type: ADME, organism-based; conditions: in vivo
[15] = system: Muscle tissue; experiment: Biodistribution in Sprague-Dawley rat muscle at 0.5 to 1 mg/kg, iv after 1 hr by gamma-well counting analysis; type: ADME, organism-based; conditions: in vivo
[16] = system: Bone; experiment: Biodistribution in Sprague-Dawley rat bone at 0.5 to 1 mg/kg, iv after 1 hr by gamma-well counting analysis; type: ADME, organism-based, Bone element; conditions: in vivo
[17] = system: Blood; experiment: Biodistribution in Sprague-Dawley rat blood at 0.5 to 1 mg/kg, iv after 1 hr by gamma-well counting analysis; type: ADME, organism-based; conditions: in vivo
[18] = system: Liver; experiment: Biodistribution in Sprague-Dawley rat liver assessed per organ at 0.5 to 1 mg/kg, iv after 15 mins by gamma-well counting analysis; type: ADME, organism-based; conditions: in vivo, 0.25 h
[19] = system: Spleen; experiment: Biodistribution in Sprague-Dawley rat spleen assessed per organ at 0.5 to 1 mg/kg, iv after 15 mins by gamma-well counting analysis; type: ADME, organism-based; conditions: in vivo, 0.25 h
[20] = system: Lung; experiment: Biodistribution in Sprague-Dawley rat lung assessed per organ at 0.5 to 1 mg/kg, iv after 15 mins by gamma-well counting analysis; type: ADME, organism-based; conditions: in vivo, 0.25 h
[21] = system: Heart; experiment: Biodistribution in Sprague-Dawley rat heart assessed per organ at 0.5 to 1 mg/kg, iv after 15 mins by gamma-well counting analysis; type: ADME, organism-based; conditions: in vivo, 0.25 h
[22] = system: Stomach; experiment: Biodistribution in Sprague-Dawley rat stomach assessed per organ at 0.5 to 1 mg/kg, iv after 15 mins by gamma-well counting analysis; type: ADME, organism-based; conditions: in vivo, 0.25 h
[23] = system: Kidney; experiment: Biodistribution in Sprague-Dawley rat kidney assessed per organ at 0.5 to 1 mg/kg, iv after 15 mins by gamma-well counting analysis; type: ADME, organism-based; conditions: in vivo, 0.25 h
[24] = system: Small intestine; experiment: Biodistribution in Sprague-Dawley rat small intestine assessed per organ at 0.5 to 1 mg/kg, iv after 15 mins by gamma-well counting analysis; type: ADME, organism-based; conditions: in vivo, 0.25 h
[25] = system: Large intestine; experiment: Biodistribution in Sprague-Dawley rat large intestine assessed per organ at 0.5 to 1 mg/kg, iv after 15 mins by gamma-well counting analysis; type: ADME, organism-based; conditions: in vivo, 0.25 h
[26] = system: Muscle tissue; experiment: Biodistribution in Sprague-Dawley rat muscle assessed per organ at 0.5 to 1 mg/kg, iv after 15 mins by gamma-well counting analysis; type: ADME, organism-based; conditions: in vivo, 0.25 h
[27] = Biodistribution in Sprague-Dawley rat fat and fur assessed per organ at 0.5 to 1 mg/kg, iv after 15 mins by gamma-well counting analysis; type: ADME, organism-based, Adipose tissue; conditions: in vivo, 0.25 h
[28] = system: Bone; experiment: Biodistribution in Sprague-Dawley rat bone assessed per organ at 0.5 to 1 mg/kg, iv after 15 mins by gamma-well counting analysis; type: ADME, organism-based, Bone element; conditions: in vivo, 0.25 h
[29] = system: Blood; experiment: Biodistribution in Sprague-Dawley rat blood assessed per organ at 0.5 to 1 mg/kg, iv after 15 mins by gamma-well counting analysis; type: ADME, organism-based; conditions: in vivo, 0.25 h
[30] = system: Thyroid gland; experiment: Biodistribution in Sprague-Dawley rat thyroid assessed per organ at 0.5 to 1 mg/kg, iv after 15 mins by gamma-well counting analysis; type: ADME, organism-based; conditions: in vivo, 0.25 h
[31] = system: Liver; experiment: Biodistribution in Sprague-Dawley rat liver assessed per organ at 0.5 to 1 mg/kg, iv after 1 hr by gamma-well counting analysis; type: ADME, organism-based; conditions: in vivo
[32] = system: Spleen; experiment: Biodistribution in Sprague-Dawley rat spleen assessed per organ at 0.5 to 1 mg/kg, iv after 1 hr by gamma-well counting analysis; type: ADME, organism-based; conditions: in vivo
[33] = system: Lung; experiment: Biodistribution in Sprague-Dawley rat lung assessed per organ at 0.5 to 1 mg/kg, iv after 1 hr by gamma-well counting analysis; type: ADME, organism-based; conditions: in vivo
[34] = system: Heart; experiment: Biodistribution in Sprague-Dawley rat heart assessed per organ at 0.5 to 1 mg/kg, iv after 1 hr by gamma-well counting analysis; type: ADME, organism-based; conditions: in vivo
[35] = system: Stomach; experiment: Biodistribution in Sprague-Dawley rat stomach assessed per organ at 0.5 to 1 mg/kg, iv after 1 hr by gamma-well counting analysis; type: ADME, organism-based; conditions: in vivo
[36] = system: Kidney; experiment: Biodistribution in Sprague-Dawley rat kidney assessed per organ at 0.5 to 1 mg/kg, iv after 1 hr by gamma-well counting analysis; type: ADME, organism-based; conditions: in vivo
[37] = system: Small intestine; experiment: Biodistribution in Sprague-Dawley rat small intestine assessed per organ at 0.5 to 1 mg/kg, iv after 1 hr by gamma-well counting analysis; type: ADME, organism-based; conditions: in vivo
[38] = system: Large intestine; experiment: Biodistribution in Sprague-Dawley rat large intestine assessed per organ at 0.5 to 1 mg/kg, iv after 1 hr by gamma-well counting analysis; type: ADME, organism-based; conditions: in vivo
[39] = system: Muscle tissue; experiment: Biodistribution in Sprague-Dawley rat muscle assessed per organ at 0.5 to 1 mg/kg, iv after 1 hr by gamma-well counting analysis; type: ADME, organism-based; conditions: in vivo
[40] = Biodistribution in Sprague-Dawley rat fat and fur assessed per organ at 0.5 to 1 mg/kg, iv after 1 hr by gamma-well counting analysis; type: ADME, organism-based, Adipose tissue; conditions: in vivo
[41] = system: Bone; experiment: Biodistribution in Sprague-Dawley rat bone assessed per organ at 0.5 to 1 mg/kg, iv after 1 hr by gamma-well counting analysis; type: ADME, organism-based, Bone element; conditions: in vivo
[42] = system: Blood; experiment: Biodistribution in Sprague-Dawley rat blood assessed per organ at 0.5 to 1 mg/kg, iv after 1 hr by gamma-well counting analysis; type: ADME, organism-based; conditions: in vivo
[43] = system: Thyroid gland; experiment: Biodistribution in Sprague-Dawley rat thyroid assessed per organ at 0.5 to 1 mg/kg, iv after 1 hr by gamma-well counting analysis; type: ADME, organism-based; conditions: in vivo

## CC(=O)c1cc(NC(=O)c2cccc([125I])c2)ccc1OCC(O)CNC(C)C (racemic)
[1]
  Drug uptake: 2.4 % ID/g
[2]
  Drug uptake: 0.97 % ID/g
[3]
  Drug uptake: 1.63 % ID/g
[4]
  Drug uptake: 0.99 % ID/g
[5]
  Drug uptake: 2.8 % ID/g
[6]
  Drug uptake: 0.22 % ID/g
[7]
  Drug uptake: 0.22 % ID/g
[8]
  Drug uptake: 0.09 % ID/g
[9]
  Drug uptake: 6.06 % ID/g
[10]
  Drug uptake: 1.59 % ID/g
[11]
  Drug uptake: 0.6 % ID/g
[12]
  Drug uptake: 1.27 % ID/g
[13]
  Drug uptake: 0.58 % ID/g
[14]
  Drug uptake: 1.16 % ID/g
[15]
  Drug uptake: 0.2 % ID/g
[16]
  Drug uptake: 0.17 % ID/g
[17]
  Drug uptake: 0.06 % ID/g
[18]
  Drug uptake: 20.19 %ID
[19]
  Drug uptake: 0.52 %ID
[20]
  Drug uptake: 1.77 %ID
[21]
  Drug uptake: 0.66 %ID
[22]
  Drug uptake: 1.26 %ID
[23]
  Drug uptake: 4.38 %ID
[24]
  Drug uptake: 9.39 %ID
[25]
  Drug uptake: 2.42 %ID
[26]
  Drug uptake: 16.64 %ID
[27]
  Drug uptake: 7.66 %ID
[28]
  Drug uptake: 2.49 %ID
[29]
  Drug uptake: 1 %ID
[30]
  Drug uptake: 0.12 %ID
[31]
  Drug uptake: 12.11 %ID
[32]
  Drug uptake: 0.31 %ID
[33]
  Drug uptake: 1.41 %ID
[34]
  Drug uptake: 0.31 %ID
[35]
  Drug uptake: 1.19 %ID
[36]
  Drug uptake: 1.83 %ID
[37]
  Drug uptake: 15.4 %ID
[38]
  Drug uptake: 1.01 %ID
[39]
  Drug uptake: 14.87 %ID
[40]
  Drug uptake: 6.73 %ID
[41]
  Drug uptake: 1.94 %ID
[42]
  Drug uptake: 0.74 %ID
[43]
  Drug uptake: 0.17 %ID
